Values of other authors in patent US20220347150A1, “TASIMELTEON USE IN TREATING SLEEP ABERRATIONS” (Vanda Pharmaceuticals Inc., priority 2019, published 2022).

Assays:
[1] = preclinical models of acute phase-shifting and chronic re-entrainment
[2] = subjects with a 5-hour advance in sleep-wake cycle; treatment relative to placebo; reported in US 20090105333A1 (WO2007/137244)

**Q.** For `CCC(=O)NC[C@@H]1C[C@H]1c1cccc2c1CCO2` [tasimelteon, Tasimelteon], which chronobiotic activity [1] is on record?
**A.** Its chronobiotic activity is “potent chronobiotic activity”.

**Q.** What about the “shifting dim light melatonin onset” value [2] of the same compound?
**A.** The value was “positive outcomes”.

**Q.** What about the sleep efficacy [2] of the same compound?
**A.** The sleep efficacy was “positive outcomes”.
